The source of these data is patent publication US9738786B2, “Dyes for labelling molecular ligands” (ILLUMINA CAMBRIDGE LIMITED, priority 2011, dated 2017).

Format in all cases: physicochemical
Series [1] is described as follows: Fluorescence of dye solutions in water.
Series [2] is described as follows: Absorption spectra of dye solutions in water. Conditions: for absorption maximum: in water.
Series [3] is described as follows: Stability over time (optical density of solution). Conditions: after 14 days.
Series [4] can be described thus: Self-quenching of fluorescence with increasing dye/protein ratio (FIG. 1). To be noted: relative to dye B with six sulfonic groups.
A short description of series [5]: Spectral properties of dye 9 (ScanMix). How it is done:
[drawing 69] 3 ml of acetic anhydride and 0.3 g triethylamine were heated 20 minutes at 110° C., acetic anhydride-removed under reduced pressure then the product precipitated with diethyl ether. The product was purified by HPLC. The absorption maximum of equimolar solutions in ScanMix of new dye 9 was 536 nm, 0.162 a.u.
A mixture of 0.39 g (1 mmol) of 4-ethyl-2-(2-anilino)vinyl-oxazolo[4,5-b]pyridinium iodide, 0.35 g (1 mmol) 2,3,3-trimethyl-1-(5-carboxypentyl)-3H-indolium-5-sulfonate, 3 ml of acetic anhydride and 0.13 g of sodium acetate was heated 20 minutes at 110° C. Acetic anhydride was removed under reduced pressure then the product precipitated with diethyl ether. The product was purified by flash column. […] This new dye 9 (max 583 nm, 447 a.u.) has stronger fluorescence compared with DG527 (594 nm, 401 a.u.).

A short description of series [6]: Photo-stability of dye solutions in water under irradiation.
Series [7] is described as follows: Stability of Dye 5A and 5B versus commercial dyes (FIG. 3).
Setting [8] is: in water, same optical density, excitation at 545 nm.
[9] abbreviates: Table 1, symmetrical dyes, solutions in water.

Take `CCN1/C(=C/C=C(/C=C/C2=[N+](CC)c3cc(S(=O)(=O)O)c4cc(S(=O)(=O)O)ccc4c3C2(C)C)c2ccc(C(=O)O)cc2)C(C)(C)c2c1cc(S(=O)(=O)[O-])c1cc(S(=O)(=O)O)ccc21` [Dye 6]: in series [1], the relative fluorescence intensity entry is given as “higher relative fluorescence intensity”. The absorption maximum in series [2] was determined as 673 nm.
As to `CC1(C)C(/C=C/C=C2/N(c3cccc(S(=O)(=O)O)c3)c3cc(S(=O)(=O)[O-])c4cc(S(=O)(=O)O)ccc4c3C2(C)C)=[N+](CCCCCC(=O)O)c2ccc(S(=O)(=O)O)cc21` [Example XX], the absorption maximum in series [2] was 567 nm.
`CCN1C(=CC=CC2=[N+](CCCCCC(=O)O)c3ccc(S(=O)(=O)O)cc3C2(C)C)C(C)(C)c2cc(S(=O)(=O)[O-])ccc21` [Cy3, reference compound]: in series [1] (setting [8]), the fluorescence intensity is on record as 422 a.u and the “wavelength of fluorescence maximum” value is given as 565 nm. For the same compound, in series [3], the optical density remaining is listed as 85%.
For the compound `CC1(C)C(/C=C/C=C/C=C2/N(c3cccc(S(=O)(=O)O)c3)c3cc(S(=O)(=O)[O-])c4cc(S(=O)(=O)O)ccc4c3C2(C)C)=[N+](CCCCCC(=O)O)c2ccc(S(=O)(=O)O)cc21` [NR665], the “fluorescence strength relative to Dy681” value in series [1] (in water) was “more than 3 times”. The fluorescence max in series [1] (water) is 687 nm. The same compound yielded an absorption maximum in series [2] of 664 nm.
Consider `CC[N+]1=C(/C=C/C=C/C=C2/N(CCCCCC(=O)O)c3ccc(S(=O)(=O)O)cc3C2(C)C)C(C)(C)c2cc(S(=O)(=O)[O-])ccc21` [dye A], for which the “self-quenching with increasing dye concentration” value in series [4] is given as “more readily self-quenched”.
Turning to `CC[n+]1cccc2oc(/C=C/C=C/C=C3/N(CCCCCC(=O)O)c4ccc(S(=O)(=O)[O-])cc4C3(C)C)nc21` [Dye 9], in series [5], the fluorescence intensity was 447 a.u and the fluorescence max is listed as 583 nm. For the same compound, the absorption maximum entry in series [5] (compared to laser excitation wavelength (532 nm)) is listed as “about 536 nm”. In addition, in series [5] (equimolar solutions in ScanMix), the “absorbance at absorption maximum” value stood at 0.162 a.u and the absorption maximum amounted to 536 nm.
With “1,1,3-trimethyl-3-(3-sulfophenyl)-1H-benzo[e]indolium-disulfonate [CP-13B]”, the fluorescence in water result in series [1] (water) was “strong fluorescence”.
Turning to `CC1(C)C(/C=C/C(=C/C=C2/N(c3cccc(S(=O)(=O)[O-])c3)c3ccc(S(=O)(=O)[O-])cc3C2(C)C)c2ccc(C(=O)O)cc2)=[N+](c2cccc(S(=O)(=O)[O-])c2)c2ccc(S(=O)(=O)[O-])cc21.[Na+].[Na+].[Na+]` [Dye 1], the “remaining initial fluorescence intensity” value in series [6] (solution in water, after 25 days of irradiation) turned out to be 85%. Further, the “photostability relative to Alexa 647” value in series [6] (solutions in water) was “improved photostability”. The same compound returned an absorption maximum in series [2] of 658 nm.
On to `CC1(C)C(/C=C/C(=C/C=C2/N(c3cccc(S(=O)(=O)O)c3)c3ccc4c(S(=O)(=O)[O-])cc(S(=O)(=O)O)cc4c3C2(C)C)c2ccc(C(=O)O)cc2)=[N+](c2cccc(S(=O)(=O)O)c2)c2ccc3c(S(=O)(=O)O)cc(S(=O)(=O)O)cc3c21` [Dye 5A], for which, in series [1], the “fluorescence intensity compared with Dy681 and Dy682” value is given as “higher”; the “shift of fluorescence maximum compared with Dy681 and Dy682” value was “red shifted”. In series [2], the absorption maximum was determined as 686 nm. Also, the “stability compared with commercial dyes” value in series [7] was “better stability”.
For the compound `CC1(C)C(/C=C/C=C/C=C2/N(c3ccccc3)c3ccccc3C2(C)C)=[N+](c2ccccc2)c2ccccc21` [S0 (2), reference compound], in series [1] (Table 1, symmetrical dyes in water, S0 (2) = 100), the “Fluorescence intensity, %” value is recorded as 100%. In series [1] (setting [9]), the “Fluorescence max, nm” value was determined as 674 nm. The “Absorption max, nm” value in series [2] (setting [9]) stood at 649 nm.
